Measurements: patent publication US20250049787A1, “TREATMENT FOR ACUTE MYELOID LEUKEMIA OR LYMPHOMA” (UNIVERSITY HEALTH NETWORK, priority 2021, published 2025)
Where a name gives a salt, the structure may show the parent alone.

Key:
TAK1/MAP3K7 = biological target: T1, TAK1/MAP3K7 (Homo sapiens, UniProt O43318); assay: Radiometric HotSpot kinase assay, TAK1; format: biochemical; conditions: ATP 20 μM; casein 1 mg/mL
T1 construct: purchased Reaction Biology Corp. (Malvern, PA, USA)
Description: (§1) Kinase IC50 values were determined by Reaction Biology Corp. (Malvern, PA, USA) in the Radiometric HotSpot™ Assay using recombinantly expressed kinase enzymes. Compound (I) was tested in a 10-dose IC50 curve in duplicate. Enzymes were tested at the Km [ATP] for each enzyme using the Reaction Biology binning structure. Kinase reactions were initiated by the addition of protein or peptide substrate and [γ-^33P]-adenosine triphosphate (ATP). Phosphorylated substrates were captured by spotting of the reaction mix on filter membranes, and enzymatic activity was quantified by liquid scintillation counting. Substrates and ATP concentrations are as follows: • FLT3: Peptide substrate, [EAIYAAPFAKKK], 5 μM: ATP 50 μM • FLT3-ITD (internal tandem duplication): Peptide substrate, [EAIYAAPFAKKK], 20 μM: ATP, 30 μM • FLT3 (D835Y): Peptide substrate, [EAIYAAPFAKKK], 5 μM: ATP 20 μM • TAK1: Casein, 1 mg/mL: ATP, 20 μM

MV-4-11 xenografts = assay: MV-4-11 xenograft model of human AML in CD-1 Nude mice; format: in vivo; conditions: for tumor status after 10 days of treatment: established MV-4-11 xenografts
Description: Female 8- to 10-week-old CD-1 Nude mice (Charles River Laboratories) with established MV-4-11 xenografts were treated for 21 days (n=8). MV-4-11 cells is a human AML cell line which endogenously expresses a Fms Related Receptor Tyrosine Kinase 3 (FLT3) internal tandem duplication (ITD) mutation. Animal weights were monitored daily, and tumor volume was measured three times per week. Tumor volume (mm^3) was defined as follows, length×width^2/2. Percentage tumor growth inhibition (% TGI) was defined as follows, 100×[1−(TVf,treated−TVi,treated)/(TVf,control−TVi,control)], where TVf is the average tumor volume at the end of study, and TVi is the average tumor volume at the initiation of treatment. In cases where tumor regression occurred, percentage tumor regression was defined as follows, 100×[1−(TVf,treated/TVi,treated)]. At the completion of the study, the mice were sacrificed by an anesthetic overdose. The Institutional Animal Care and Use Committee of the University Health Network approved all animal procedures. […] Data are represented as mean±SEM. p values were calculated using Student's/test.

[1] = test system: SLP-76 Ser376 phosphorylation; assay: Phospho-SLP-76 (Ser376) sandwich ELISA in anti-CD3 stimulated Jurkat E6.1 cells; format: cell-based; conditions: Homo sapiens, 3 hours pretreatment, anti-CD3 (OKT3) 5 μg/mL 15 minutes
Description: Jurkat E6.1 cells were starved overnight in RPMI-1640 medium (Invitrogen) without fetal bovine serum (FBS). Starved cells (2×10^6 per sample in 1 mL) were pretreated with Compound (I) tartrate for 3 hours and then stimulated with 5 μg/mL anti-CD3 antibody (clone OKT3) for 15 minutes. Cells were immediately lysed in cell lysis buffer plus protease and phosphatase inhibitors, and then assayed for SLP-76 Ser376 phosphorylation with the PathScan Phospho-SLP-76 (Ser376) Sandwich ELISA Kit according to the kit instructions (Cell Signaling Technology, Inc.). Duplicate data points for each concentration were collected (Molecular Devices M5). Raw absorbance (A=450 nm) values were background subtracted and then individual values were averaged for each Compound (I) tartrate concentration. The cellular EC50 was determined using a simple one-site dose-response curve fitting model (XLfit4, IDBS).

c-KIT (CD117) = assay: Flow cytometry, cell surface c-KIT in primary human AML cells; format: cell-based; conditions: FLT3-ITD positive primary AML cells, viable CD14− blasts, 48 and 72 hours, dose-dependent
Description: Patient samples were obtained from Dr. Mark Minden (Princess Margaret Cancer Centre, Toronto, Ontario, Canada). FLT3-ITD positive AML cells were treated with the indicated concentrations of Compound (I) for 48 and 72 hours at 37° C. and 5% CO2 and stained with APC-CD45, PECy7-CD38, APC/Fire 750-CD33, PerCP-CD14, PE-FLT3 (Beckman Coulter, Cat. IM2234U), PE/Dazzle 594-CD117 (BioLegend, Cat. #313226) or isotype control antibodies and analyzed on a BD LSRFortessa II flow cytometry analyzer. Data were analyzed using FlowJo software and representative data are shown. Compound (I) treatment increases the cell surface expression of FLT3 and c-KIT in a dose-dependent manner in viable CD14^− AML blast cells. Similar results were obtained in additional FLT3-ITD positive primary AML samples (data not shown).

FLT3 (D835Y) = biological target: T2, FLT3 (D835Y) (Homo sapiens, UniProt P36888, D835Y); assay: Radiometric HotSpot kinase assay, FLT3 (D835Y); format: biochemical; conditions: ATP 20 μM; peptide substrate 5 μM
T2 construct: purchased Reaction Biology Corp. (Malvern, PA, USA)
Description: as §1

[2] = biological target: FLT3-ITD (internal tandem duplication) (Homo sapiens, UniProt P36888); assay: Radiometric HotSpot kinase assay, FLT3-ITD; format: biochemical; conditions: ATP 30 μM; peptide substrate 20 μM
Description: as §1

T1 sequence (O43318 1-303 limits assumed): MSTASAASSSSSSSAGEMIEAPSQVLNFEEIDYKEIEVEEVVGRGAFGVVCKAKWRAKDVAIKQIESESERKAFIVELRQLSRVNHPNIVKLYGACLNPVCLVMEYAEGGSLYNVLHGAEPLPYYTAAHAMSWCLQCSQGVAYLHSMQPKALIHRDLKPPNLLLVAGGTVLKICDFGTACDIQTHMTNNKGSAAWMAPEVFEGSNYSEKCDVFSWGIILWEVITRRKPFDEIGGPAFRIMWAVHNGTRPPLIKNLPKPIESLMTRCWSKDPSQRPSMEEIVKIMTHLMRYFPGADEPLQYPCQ

CN1CCN(c2ccc3nc(-c4c(N)c5ccsc5[nH]c4=O)[nH]c3c2)CC1 [Compound (I) tartrate, 4-amino-5-(6-(4-methylpiperazin-1-yl)-1H-benzo[d]imidazol-2-yl)thieno[2,3-b]pyridin-6(7H)-one]
IC50 (TAK1/MAP3K7): 18 nM
tumor status after 10 days of treatment (MV-4-11 xenografts; 50 mg/kg orally QD): tumors were undetectable
effect on large tumors after 7 days of treatment (MV-4-11 xenografts; 50 mg/kg, large tumors (≅900 mm^3)): complete tumor regression
tumor status after 10 days of treatment (MV-4-11 xenografts; 150 mg/kg orally QD): tumors were undetectable
tolerability (body weight and behavior) (MV-4-11 xenografts; CD-1 Nude mice, 21 days treatment): well tolerated
EC50 [1]: 24 nM
cell surface expression of c-KIT (CD117) (c-KIT (CD117)): increases
IC50 (FLT3 (D835Y)): 0.023 nM
IC50 [2]: 0.13 nM
